Experimental data taken from patent publication US12661404B2, “Methods and materials for tissue ablation” (Mayo Foundation for Medical Education and Research, priority 2020, dated 2026).
Read-outs that look alike come from different tables or passages of the source.

Experiments:
[1] = system: human blood clot
Method: In a separate experiment blood coagulation was induced in uncougulated human. A blood volume of 4 mL citrated blood loaded into a polypropylene tube and mixed with 400 μL of 0.2 M calcium chloride (CaCl2) for 10 seconds. Aliquouts of 100 μL were deposited into multiple wells on a 96 well plate and the remaining blood volume was kept in the tube. Coagulation was initiated by incubating the samples at 37° C. for 10 minutes.

[2] = system: pig blood
Method: (§1) The effect of IL on coagulation and cell death in blood was evaluated in vitro. To evaluate the effect of cell death along the margins of the ablation zone, specifically on the effect of IL on inflammatory cells, blood treated with low concentrations of IL was used to simulate concentrations along the ablation margins. To analyze the effect of the ionic liquid on blood coagulation, RBC hemolysis, and immune cells, analyses including rheometry, hemolyses assay, complete blood counts were performed on blood smears following incubation of pig blood aliquots with various concentrations of IL.

[3] = system: pig blood cells
Method: as §1

[4] = system: human hepatocellular carcinoma (Hep-G2) cells; settings: Hep-G2, 24 hours incubation, WST-1
Method: HepG2 human liver cancer cell line (ATCC CRL10741; American Type Culture Collection, Manassas, VA, USA) were cultured in 75 cm^2 flasks using growth medium consisting of low glucose Dulbecco's Modified Eagle Medium (DMEM, ThermoFisher) and 10% heat-inactivated bovine serum that was supplemented with 100 IU penicillin and 10 μg/mL streptomycin (Thermo Fisher Scientific). […] The anticancer activity of LATTE on HepG2 was determined using WST-1 reagent (2-(4-Iodophenyl)-3-(4-nitrophenyl)-5-(2,4-disulfophenyl)-2H-tetrazolium sodium) assay as an indication of viability/cytotoxicity treatment. WST-1 viability assay is based on the reduction of tetrazolium salt, WST-1 to an insoluble formazan dye by electron transport across the plasma membrane in viable cells that alter the optical density of the media. […] Cell viability was calculated relative to control wells that received the growth medium alone.
All reported values are the means of three replicate experiments with each study having 8 wells per dose level. Plots of the log concentration versus fractional viability for each drug were generated for each study.

[5] = system: subcutaneous fat tissue; settings: 25% LATTE mixture subcutaneous
Method: Additional experiments were performed on explanted fat tissue obtained from the groin area from pig in a petri dish submersed in saline (FIG. 10).

[6] = system: pig liver
Method: Ultrasound-guided injection of LATTE solution was performed in euthanized pigs or rabbits. […] Ultrasonography was used to visualize the left liver lobe parenchyma using a high-frequency transducer (A 9-MHz multi-frequency linear probe, ACUSON 52000, Siemens, Germany). The access site position was marked on the skin and a scalpel blade was used to create a small incision in the center of the marked line. The access needle was advanced through the skin incision in front of the transducer parallel its long axis until it reached the desired location then the LATTE mixture was slowly injected over one minute. At 10 minutes post-injection, the liver tissue was harvested and subjected to near-infrared fluorescent imaging (NIRF) (IVIS 200, PerkinElmer, Inc. Waltham, MA) followed by fixation and histologic evaluation.
Injection Images were acquired at 0 and 90 minutes after injection. Pig livers were scanned with a 3T MAGNETOM Skyra MRI (Siemens Healthcare, Erlangen, Germany) with an 18 channel anterior coil in combination with a 32 channel posterior spine coil. […] Scans were acquired at 0 and 90 minutes after injection. Segmentation and volume calculations were acquired using the Materialise 3-Matic and Mimics 3D image processing software (Materialise, Belgium).

[7] = system: freshly resected human tumors; settings: 25%-LATTE mixed with ICG, 24 hours at 37° C., 12 tumors
Method: The fluorescent intensity and diffusion area were calculated using similar parameters for all tissues. […] LATTE was able to ablate a variety of highly malignant human tumors.
Explanted human cancer tissues were collected following surgical resection and placed in RPMI medium for preservation. […] Near-infrared fluorescent imaging (NIRF) was performed at 5 minutes after injection. […] Tissues were transected to reveal the ablated zone were fixed in 10% buffered formalin, embedded in paraffin, then sectioned and subsequently stained with hematoxylin and eosin for microscopic evaluation.

[8] = system: fat cells (adipocytes); test: Explanted pig fat tissue incubated with LATTE; settings: after 1 hour in LATTE solution
[9] = system: N1S1 liver tumors; test: Intratumoral injection of LATTE in N1S1 rat model of liver cancer; type: in vivo
Method: All procedures were approved by the institutional animal care and use committee and performed according to institutional guidelines. […] N1S1 cells were maintained in suspension in a 75 cm^2 culture flasks at 37° C. in a 5% CO2 humidified chamber. […] To prepare the cells for inoculation, N1S1 cell aliquots were rinsed and suspended in plain IMDM (without antibiotics or serum) to yield 2×10^6 cells in 100 μL of fresh aliquots for each inoculation. The rat liver was surgically exposed through upper midline laparotomy under isoflurane anesthesia followed by subcapsular inoculation of N1S1 cells into the left liver lobe. Gentle compression with gauze for hemostasis was used to prevent cell reflux. The abdominal incision was closed using interrupted Vicryl sutures for abdominal muscle and subcuticular suture for the skin, followed by the application of Vetbond tissue adhesive (3M, St. Paul, MN) followed by recovery from anesthesia. Intratumoral injection of the ionic liquid mixture was performed in three groups of rats bearing 0.5 cm^3 N1S1 tumor lesions measured with ultrasound. […] All solutions contained 0.25 mg/mL indocyanine green (ICG, Sigma-Aldrich, St. Louis, MO) solubilized in normal saline. Following intratumoral injections, treated rats were allowed to survive for 2 weeks after treatment, and tumor volume was documented using ultrasound. N1S1 tumor progression and treatment response was assessed using percutaneous ultrasonography. Selected focal zone depth, gain, and tissue harmonic settings were optimized during the acquisition of the initial imaging at baseline, and the same parameters were applied during acquisition after intratumoral injection of LATTE mixture. Serial ultrasound examinations were performed on rat livers following N1S1 inoculation to confirm tumor formation and assess tumor volume. Rats were anesthetized using a gas mixture of 2-3% isoflurane in 100% oxygen via a nose cone. Rats were secured in a supine position on an electronically controlled warming platform to maintain the temperature at 37° C. during the imaging procedure. The abdominal area was shaved and prepped with depilatory cream (Nair, Church& Dwight Co. INC). Initially, abdominal sonography was performed to delineate tumor mass boundaries in grayscale (B-mode) using ACUSON 52000 system (Siemens Inc., Germany) and a multi-frequency linear transducer (9L4, 9.0 MHz). The transducer was positioned to obtain 2D scans via the subcostal window to document liver tumors and measure lesion diameter. […] Tumor volumes were calculated as following: V=(4/3)×π×(1/2) SI×(1/2)LM×1/2 AP. Color Doppler images were also acquired to detect the distribution of the tumor blood flow weekly.
To visualize normal liver parenchyma on CT imaging, rats received a bolus injection of 400 μL of the alkaline earth metal-based nanoparticle suspension, Exitron nano 12000 (Miltenyi Biotec, Auburn, CA) two hours prior to micro-CT scanning. Rats were anesthetized using inhalation of 2-3% isoflurane in 100% 02 at a constant flow rate of 2 L/minute and placed on a cassette equipped with a warming system and continuous gas exchange and integrated real-time motion detection camera. Fixed rat tissues were placed and immobilized using styrofoam beads inside a humidified plastic chamber. […] The 3D image stacks were reconstructed using NRecon software and InstaRecon CBR Server (version: 1.7.4.6, Bruker, Kontich, Belgium) following adjustment of random movements, beam-hardening correction, and ring artifact reduction and smoothing. 3D volume rendering was visualized using CTVox software (version: 3.3. 0 r1383, Bruker, Kontich, Belgium). The stacks were virtually rotated and axially oriented to yield transverse projections of select volume of interest (VOI) using Data Viewer software (Bruker, Kontich, Belgium).

[10] = system: cardiac muscle; settings: 1 cc with ICG, 1 hour
Method: FIGS. 14A-14B. Effect of an ablation agent on pig heart tissue. FIG. 14A. In a living Yorkshire pig weighing 50-55 kg, a syringe connected to a 21 gauge 7 cm needle was guided through the skin into the myocardium using hand-held ultrasound guidance. […] FIG. 14B.
Pig heart tissue septum received 1 cc injection of LATTE mixture with ICG under ultrasound guidance. Cardiac muscle was removed after 1 hour for near-infrared imaging (NIRF) and histology was performed.

choline-geranate [LATTE]
clot dissolution, coagulated blood in multi-wells ([1]; overlayed with LATTE): clot was dissolved | lysis of blood clot formed in the tube ([1]; petri dish, incubation with LATTE): complete lysis | blood coagulation initiation lag time (tlag) ([2]; 0.78% IL): slight increase in lag time | decrease in storage modulus (G′) at 30 minutes ([2]; 0.78% IL): ~20% | blood coagulation initiation lag time (tlag) ([2]; 1.56 wt % IL): significantly extended lag time | drop in storage modulus (G′) at 30 minutes ([2]; 1.56 wt % IL): 95% | coagulation during 30 minutes testing period ([2]; 3.12 wt % IL): failed to coagulate | decrease in storage modulus (G′) at 30 minutes ([2]; 3.12 wt % IL): 100 wt % | red blood cells (RBC) total count ([3]; 0.78, 1.56, 3.12 wt % IL): concentration dependent decrease | white blood cells (WBC) total count ([3]; 0.78, 1.56, 3.12 wt % IL): concentration dependent decrease | lymphocyte count ([3]; 0.78, 1.56, 3.12 wt % IL, compared to control): no change in lymphocyte count | hemolysis test ([3]; 0.78-25 wt % IL): significant increase in hemolysis | hemolysis on stained blood smears ([3]; 3.12 wt % IL): complete hemolysis | effective dose (EC50), fractional cell viability [4]: 0.19% | adipocyte ablation in treated zone (histology) [5]: complete ablation of the adipocytes | liver histology ([6]; 2 mL of 25% LATTE mixed with ICG): total destruction of tissue architecture | ablation zone size ([6]; transcutaneous injection in pigs): up to 4 cm | tumor tissue histology [7]: marked tissue destruction | fat depletion from adipocytes [8]: fat was depleted | tumor volume by micro-CT vs saline ([9]; 2 weeks post-treatment): substantially smaller tumor volumes | tumor size on gray-scale US, smaller than saline injected group ([9]; 25%-LATTE intratumoral, two weeks): 5 fold | CD68-expressing macrophages, increase ([9]; tumor sections, two weeks): 16 fold | number of apoptotic (cleaved Caspase-3) cells, higher than saline group ([9]; tumor sections, two weeks): 24 fold | treatment response on micro-CT review by radiologist, size criteria ([9]; two weeks): complete treatment response | tumor histology (H&E) ([9]; two weeks): complete tumor necrosis | morphometric analysis of tumor size and cell count ([9]; two weeks, vs saline): significant reduction in tumor size and cell count | proliferating (PCNA) cells ([9]; two weeks, vs saline): markedly reduced number of proliferating cells | CD3+ T-lymphocyte infiltration ([9]; within treated tumor margin, two weeks): enhanced CD3+T-lymphocyte infiltration | cardiac muscle histology at injected site [10]: marked ablation of the cardiac myofibers
